Results: patent US10576086B2, “Triazine derivatives as interferon-gamma inhibitors” (University of Greenwich, priority 2015, dated 2020)

How the values were obtained:
PBMCs = test: Experiment 1: PBMC viability, trypan blue exclusion; format: cell-based, human; details: after 24 h incubation
Protocol: Cell viability was checked using trypan blue exclusion, using 0.04% trypan blue solution (0.4% trypan blue solution (Sigma, UK) diluted 10× with PBS). 10 μl trypan blue solution was mixed with 10 μl cell suspension, and after 5 minutes was mounted onto the haemocytometer. The total number of cells, and the total number of viable (colourless) cells were counted in three 1 mm squares. Viability was greater than 85% in all cases.
(§1) The tubes were incubated at 37° C. for 24 hours under a 5% CO2 atmosphere. After incubation, the cells (>75% viable according to trypan blue test) were centrifuged at 3000 prm for 10 minutes, and the cell-free supernatants were collected and stored at −70° C. before analysis for IFN-γ.

[1] = test system: IFN-γ production in human peripheral blood mononuclear cells (PBMCs); test: Experiment 1: IFN-γ production by PHA-stimulated human PBMCs, ELISA; format: cell-based; details: for IFN-γ Concentration: PHA 5 μg/ml; for IFN-γ Concentration, Mean: 24 h
Protocol: The ex vivo activity of various compounds towards suppression of IFN-γ production in human peripheral blood mononuclear cells (PBMCs) was studied.
[…] They were not taking any other prescribed medication that could interfere with the results.
The blood was transferred into 50 ml centrifuge tubes (Corning, USA) containing heparin sodium salt 37.5 mg heparin powder diluted in 300-500 μl phosphate buffered saline (PBS) for 50 ml blood), and centrifuged at 2000 rpm for 10 minutes, and the plasma portion was separated. The plasma was further centrifuged at 3000 rpm for 10 minutes, and the supernatant separated and kept for later use.
The blood cells from the initial centrifugation were diluted with an equal volume of RPMI-1640 (Sigma, UK), and layered (2:1) onto Lymphoprep (Axis-Shield, Norway) in 25 ml universal tubes (Bibby Sterilin, UK) for density gradient centrifugation at 2500 rpm for 30 minutes.
PBMCs (lymphocytes and monocytes) were then removed from the interface, diluted in an equal volume of RPMI-1640 and washed twice by centrifugation at 3000 rpm for 10 minutes.
For testing, the PBMCs were re-suspended in a known volume of culture medium containing RPMI-1640 supplemented with 2 mM L-glutamine, 100 U penicillin, and 100 μg streptomycin (Sigma, UK).
The cell count was determined by the use of a haemocytometer using 10 μl of the cell suspension. The number of cells was determined based on a count in 5 random 1 mm squares.
The cell solution was then diluted with the supplemented RPMI-1640 medium to ensure a cell count of 2×10^6 cells/ml.
The PBMC suspension was added to tissue culture tubes (Bibby Sterilin, UK) with 5% autologous plasma, 5 μg/mlphytohaemaglutinin (PHA) to stimulate T-lymphocyte IFN-γ production, and a solution containing various concentrations of the compound to be studied. A control containing no compound was also cultured for each subject.
In the case of lamotrigine, the isethionate salt was used, and diluted with RPMI-1640 to produce 100 μM, 30 μM, 10 μM and 3 μM solutions that were tested on PBMCs from the first three subjects. With PBMC's from the other two subjects, a 300 μM solution was also tested.
For sipatrigine, the mesylate salt was used, and diluted with RPMI-1640 to produce 30 μM, 10 μM, 3 μM and 1 μM solutions. It was tested on PBMCs from the first three subjects only.
as §1
Levels of IFN-γ produced by the PBMCs were determined by the DuoSet ELISA Development system for human IFN-γ (RD Systems, UK), with a sensitivity of 15.6-1000 pg/ml.
Capture antibody, detection antibody, standard and streptavidin-HRP (streptavidin conjugated to horseradish peroxidase) were provided. A 96-well microtitre plate (Corning CoStar, flat bottom, polystyrene, high binding microtitre plate, UK) was coated with 100 μl per well of capture antibody (mouse anti-human IFN-γ at 4.0 μg/ml), sealed and incubated overnight. Unbound capture antibody was washed from the wells three times, using a wash buffer (0.05% Tween 20 in PBS). Block buffer (1% bovine serum albumin (BSA) in PBS) was then added. After incubation for 1 hour, the wells were washed, and sample culture supernatants or standards were added. A 7-point standard curve (in the range 15.6-1000 pg/ml) was produced from […] recombinant human IFN-γ using 2-fold serial dilutions in reagent diluent (0.1% BSA, 0.05% Tween 20 in tris-buffered saline (20 mM Trizma base, 150 mM NaCl)). The sealed plates were left to incubate for 2 hours.
After further washing, the detection antibody (biotinylated goat anti-human IFN-γ at 175 ng/ml) was added, and the plates sealed and incubated for a further 2 hours. […]

Nc1nnc(-c2cccc(Cl)c2Cl)c(N)n1 [Lamotrigine, 3,5-diamino-6-(2,3-dichlorophenyl)-1,2,4-triazine]
effect on PBMC viability (PBMCs): did not appear to alter PBMC viability | IFN-γ Concentration ([1]; 3 μM, Subject 1, 24 h): 1153.13 pg/mL | IFN-γ Concentration ([1]; 3 μM, Subject 2, 24 h): 1238.68 pg/mL | IFN-γ Concentration ([1]; 3 μM, Subject 3, 24 h): 1641.69 pg/mL | IFN-γ Concentration ([1]; 3 μM, Subject 4, 24 h): 937.30 pg/mL | IFN-γ Concentration ([1]; 3 μM, Subject 6, 24 h): 1305.54 pg/mL | IFN-γ Concentration, Mean ([1]; 3 μM, mean of five subjects): 1255.27 pg/mL | IFN-γ Concentration ([1]; 10 μM, Subject 1, 24 h): 923.32 pg/mL | IFN-γ Concentration ([1]; 10 μM, Subject 2, 24 h): 1307.46 pg/mL | IFN-γ Concentration ([1]; 10 μM, Subject 3, 24 h): 1180.21 pg/mL | IFN-γ Concentration ([1]; 10 μM, Subject 4, 24 h): 895.04 pg/mL | IFN-γ Concentration ([1]; 10 μM, Subject 6, 24 h): 1227.25 pg/mL | IFN-γ Concentration, Mean ([1]; 10 μM, mean of five subjects): 1106.66 pg/mL | IFN-γ Concentration ([1]; 30 μM, Subject 1, 24 h): 872.99 pg/mL | IFN-γ Concentration ([1]; 30 μM, Subject 2, 24 h): 1089.69 pg/mL | IFN-γ Concentration ([1]; 30 μM, Subject 3, 24 h): 897.48 pg/mL | IFN-γ Concentration ([1]; 30 μM, Subject 4, 24 h): 853.66 pg/mL | IFN-γ Concentration ([1]; 30 μM, Subject 6, 24 h): 1191.37 pg/mL | IFN-γ Concentration, Mean ([1]; 30 μM, mean of five subjects): 981.04 pg/mL | IFN-γ Concentration ([1]; 100 μM, Subject 1, 24 h): 834.21 pg/mL | IFN-γ Concentration ([1]; 100 μM, Subject 2, 24 h): 886.41 pg/mL | IFN-γ Concentration ([1]; 100 μM, Subject 3, 24 h): 392.96 pg/mL | IFN-γ Concentration ([1]; 100 μM, Subject 4, 24 h): 775.28 pg/mL | IFN-γ Concentration ([1]; 100 μM, Subject 6, 24 h): 1095.88 pg/mL | IFN-γ Concentration, Mean ([1]; 100 μM, mean of five subjects): 796.95 pg/mL | IFN-γ Concentration ([1]; 300 μM, Subject 4, 24 h): 495.48 pg/mL | IFN-γ Concentration ([1]; 300 μM, Subject 6, 24 h): 798.32 pg/mL | IFN-γ Concentration, Mean ([1]; 300 μM, mean of two subjects): 646.90 pg/mL | inhibition of IFN-γ production, trend ([1]; 300 μM, two subjects, no significance value calculated): continuing trend towards further increased inhibition | inhibition of IFN-γ production, significance recalculated without subject 3 ([1]; 10, 30 and 100 μM, four subjects): statistically significant (P<0.05) inhibition of IFN-γ production | inhibition of IFN-γ production (in words) ([1]; Experiment 1, human PBMCs): inhibits the amount of IFN-γ produced by the PBMCs | reduction in IFN-γ production ([1]; Subject 3, 100 μM): 75% | reduction of IFN-γ produced by PBMCs, significance vs control ([1]; concentrations of 10 to 100 μM, paired Student's t-test): statistically significant (P<0.05) reductions
